Experimental findings from US5248689A, “Substituted N-(imidazolyl)alkyl alanine derivatives” (SmithKline Beecham Corporation, priority 1990, dated 1993) are described below.

Structures are written as SMILES. Like-named read-outs stand apart in the source and are kept apart here.

Test [1] has as its system conscious rats made renin dependent hypertensive by ligation of the left renal artery. The test can be described thus: antihypertensive activity in conscious renin dependent hypertensive (renal artery ligated) rats. It counts as in vivo. The settings on record: Rattus norvegicus, 7-8 days after ligation, read-out: IC30 (dose needed to reduce mean arterial pressure by 30 mm Hg). The procedure:
(§1) Angiotensin II antagonist activity of the compounds of Formulas (I) is assessed by in vitro and in vivo methods. In vitro antagonist activity is determined by the ability of the compounds to compete with ^125 I-angiotensin II for binding to vascular angiotensin II receptors and by their ability to antagonize the contractile response to angiotensin II in the isolated rabbit aorta. In vivo activity is evaluated by the efficacy of the compounds to inhibit the pressor response to exogenous angiotensin II in conscious rats and to lower blood pressure in a rat model of renin dependent hypertension.
The antihypertensive activity of the compounds is measured by their ability to reduce mean arterial pressure in conscious rats made renin dependent hypertensive by ligation of the left renal artery (Cangiano et al., J. Pharmacol. Exp. Ther. 208:310, 1979). Renal artery ligated rats are prepared with indwelling catheters as described above. Seven to eight days following renal artery ligation, the time at which plasma renin levels are highest, the conscious rats are placed in restrainers and mean arterial pressure is continuously recorded prior to and following the administration of the compounds intravenously or orally. The dose of compound needed to reduce mean arterial pressure by 30 mm Hg (IC30) is used as an estimate of potency. […]

Test [2] deals with pressor response to angiotensin II. Nature of the test: inhibition of pressor response to angiotensin II in conscious rats. The format is in vivo. The settings on record: Rattus norvegicus, intravenous angiotensin II 250 mg/kg [sic], read-out: IC50 (dose needed to produce 50% inhibition of the control response to angiotensin II). The procedure:
as §1
Rats are prepared with indwelling femoral arterial and venous catheters and a stomach tube (Gellai et al., KidneyInt. 15:419, 1979). Two to three days following surgery the rats are placed in a restrainer and blood pressure is continuously monitored from the arterial catheter with a pressure transducer and recorded on a polygraph. The change in mean arterial pressure in response to intravenous injections of […] angiotensin II is compared at various time points prior to and following the administration of the compounds intravenously or orally at doses of 3 to 300 mg/kg. The dose of compound needed to produce 50% inhibition of the control response to angiotensin II IC50) is used to estimate the potency of the compounds.

With `CCCCc1ncc(CN[C@@](C)(Cc2cccs2)C(=O)O)n1Cc1ccccc1Cl` [Example 6, N-[{1-[(2-chlorophenyl)methyl]-2-n-butyl-1H-imidazol-5-yl}methyl]-α-methyl-β-(2-thienyl)alanine], the ED (30 mm Hg) worked out at 15 mg/kg in test [1] (iv) and 70 mg/kg in test [1] (po, orally). In addition, the ED50 in test [2] (i.v.) turned out to be 11 mg/kg; in test [2] (po, orally), 45 mg/kg.
